For test [1], the system named is 3T3-L1. The test can be described thus: Upregulation of CPT-1 gene expression in mouse 3T3L1 cells at […] after 4 days by RT-PCR analysis relative to untreated control. It is filed as functional, cell-based.
Test [2] concerns 3T3-L1. In words: Upregulation of PGC-1 gene expression in mouse 3T3L1 cells at […] after 4 days by RT-PCR analysis relative to control. Format: functional, cell-based.
Test [3] concerns 3T3-L1. The test can be described thus: Upregulation of CPT-1 gene expression in mouse 3T3L1 cells at […] after 4 days by RT-PCR analysis relative to insulin. It is filed as functional.
The subject of test [4] is 3T3-L1. The test can be described thus: Downregulation of ACC-1 gene expression in mouse 3T3L1 cells at […] after 4 days by RT-PCR analysis relative to untreated control. Format: functional.
Test [5] has as its system 3T3-L1. In words: Downregulation of ACC-1 gene expression in mouse 3T3L1 cells at […] after 4 days by RT-PCR analysis relative to insulin. Format: functional.
The test system of test [6] is 3T3-L1. In words: Downregulation of CPT-1 gene expression in mouse 3T3L1 cells at […] after 4 days by RT-PCR analysis. It is filed as functional, cell-based.

SMILES strings stand for the structures. Calls of active or inactive are those of the source. No cut-off for these calls is given here.

Turning to `OCCCCCCNC(=S)N/N=C\c1ccc(OCc2cn(Cc3ccccc3)nn2)cc1`, the result in test [1], in test [2], in test [3] and in test [4] was Active.

Take `S=C(NCCc1ccccc1)N/N=C\c1ccc(OCc2cn(Cc3ccccc3)nn2)cc1`: the result in test [1], in test [2] and in test [3] was Active. Moreover, the “fold change (FC)” value in test [5] and in test [4] was 2 each time.

Regarding `CCCCCNC(=S)N/N=C\c1ccc(OCc2cn(Cc3ccccc3)nn2)cc1`, the outcome in test [1], in test [2] and in test [4] was Active. Besides, the “fold change (FC)” value in test [3] is on record as 2.

Turning to `CC(C)CNC(=S)N/N=C\c1ccc(OCc2cn(Cc3ccccc3)nn2)cc1`, the outcome in test [1] and in test [2] was Active. The “fold change (FC)” value is recorded as 5 in test [3], 2 in test [5] and 2 in test [4].

Take `OCCNC(=S)N/N=C\c1ccc(OCc2cn(Cc3ccccc3)nn2)cc1`: the outcome in test [2] and in test [4] was inactive. Besides, in test [6], the outcome was Active.

Consider `CCCCCCCCNC(=S)N/N=C\c1ccc(OCc2cn(Cc3ccccc3)nn2)cc1`, for which the outcome in test [2] and in test [6] was Active. The “fold change (FC)” value in test [5] and in test [4] was 4 throughout.

For `CN(C)CCNC(=S)N/N=C\c1ccc(OCc2cn(Cc3ccccc3)nn2)cc1`, the result in test [1] was Active. Also, the result in test [2] was inactive. Besides, the “fold change (FC)” value in test [3] was found to be 3; in test [5] it was 2; in test [4] it was 2.

For the origin of these results see ChEMBL document CHEMBL2424633, “Evaluation of the Influence of thiosemicarbazone-triazole hybrids on genes implicated in lipid oxidation and accumulation as potential anti-obesity agents” (2013).
